Reference: patent US20240246968A1, “SMALL MOLECULE INHIBITORS OF KRAS G12C MUTANT” (Merck Sharp & Dohme LLC, priority 2021, published 2024)
pIC50: −log10 of the molar value.

Experiments:
[1] = molecular target: T1, interaction between recombinant K-Ras4B G12C mutant protein and cRAF RAS-binding domain (cRAF-RBD) (Homo sapiens, UniProt P01116, G12C); experiment: Inhibitory activity on interaction between KRAS G12C and cRAF (Alpha technology); format: biochemical; settings: GMPPNP-bound KRAS G12C incubated with compound at 25° C. for 1 hour, then cRAF-RBD; Alpha signal
T1 construct: made in house; host or cells: E. coli
Summary of the method: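 Alpha readout of cRAF-RBD (aa 50-132) binding to KRAS G12C (aa 1-169) after 1.5 h RT, following 1 h, 25° C compound preincubation with GMPPNP-bound protein (pH 7.5 Tris, 1 mM MgCl2, TCEP, Tween 20). IC50 fitted from titrations, with GDP-bound KRAS as 100% and DMSO as 0% inhibition.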

MIA PaCa-2 cells = experiment: Growth inhibition activity on KRAS-G12C mutant cell line (MIA PaCa-2), CellTiter-Glo 3D; format: cell-based, human; settings: MIA PaCa-2, 3-day culture with compound
Summary of the method: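 Luminescence readout (CellTiter-Glo 3D) after 3 days of compound treatment at 37 °C, 5% CO2, 0.2% final DMSO, gave % growth inhibition versus no-compound wells, from which IC50 (nM) was derived; cells had been plated in 10% FBS RPMI1640 one day before dosing.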

[2] = molecular target: Gppcp-bound recombinant K-Ras4B G12C mutant protein (amino acids 1-169, C51S/C80L/C118S) (Homo sapiens, UniProt P01116, C118S/C51S/C80L/G12C); experiment: KRASG12C binding assay (LC-MS, compound binding rate); settings: test compound final concentration 0.5 μM, 25° C., 1 hour
Summary of the method: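 Covalent adduct formation measured by deconvoluted intact-mass LC-MS after 1 h at 25 °C with compound at 0.5 μM final and 50 nM Gppcp-loaded KRAS G12C (residues 1-169, C51S/C80L/C118S). Buffer: TBS, 0.1 mM TCEP, 0.25 mM MgCl2, 50 μM Gppcp. Binding % = one-molecule adduct/(unbound + all adducts), binned A ≥80, B 60–80, C 40–60, D 20–40, E <20.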

SMILES | pIC50 [1] | pIC50 (MIA PaCa-2 cells) | binding rate [2]
COc1c(-c2cccn3c(C(=O)c4cc(F)c(NC(=O)/C=C/CN[C@H]5CC[C@H](OC)CC5)c(F)c4)ccc23)c(C(F)(F)F)cc2c1nc(C)n2C (single isomer, unassigned) [Example 60-1, (E)-N-(2,6-difluoro-4-(8-(4-methoxy-1,2-dimethyl-6-(trifluoromethyl)-1H-benzo[d]imidazol-5-yl)indolizine-3-carbonyl)phenyl)-4-(((1r,4r)-4-methoxycyclohexyl)amino)but-2-enamide] | 5.80 | 5.80 | A (A binding rate of 80% or more is rated “A”)
COc1c(-c2cccn3c(C(=O)c4cc(F)c(NC(=O)/C=C/CN[C@H]5CC[C@H](OC)CC5)c(F)c4)ccc23)c(C(F)(F)F)cc2c1nc(C)n2C (single isomer, unassigned) [Example 60-2, (E)-N-(2,6-difluoro-4-(8-(4-methoxy-1,2-dimethyl-6-(trifluoromethyl)-1H-benzo[d]imidazol-5-yl)indolizine-3-carbonyl)phenyl)-4-(((1r,4r)-4-methoxycyclohexyl)amino)but-2-enamide] | 7.59 | 7.82 | A (A binding rate of 80% or more is rated “A”)
COc1c(-c2cccn3c(C(=O)c4cc(F)c(NC(=O)/C=C/CNC5CCOCC5)c(F)c4)ccc23)c(C(F)(F)F)cc2c1nc(C)n2C (single isomer, unassigned) [Example 61-1, (E)-N-(2,6-difluoro-4-(8-(4-methoxy-1,2-dimethyl-6-(trifluoromethyl)-1H-benzo[d]imidazol-5-yl)indolizine-3-carbonyl)phenyl)-4-((tetrahydro-2H-pyran-4-yl)amino)but-2-enamide] | 5.72 | 5.64 | B (a binding rate of 60% or more and less than 80% is rated “B”)
COc1c(-c2cccn3c(C(=O)c4cc(F)c(NC(=O)/C=C/CNC5CCOCC5)c(F)c4)ccc23)c(C(F)(F)F)cc2c1nc(C)n2C (single isomer, unassigned) [Example 61-2, (E)-N-(2,6-difluoro-4-(8-(4-methoxy-1,2-dimethyl-6-(trifluoromethyl)-1H-benzo[d]imidazol-5-yl)indolizine-3-carbonyl)phenyl)-4-((tetrahydro-2H-pyran-4-yl)amino)but-2-enamide] | 7.55 | 8.00 | A (A binding rate of 80% or more is rated “A”)
CO[C@H]1CC[C@H](NC/C=C/C(=O)Nc2c(F)cc(C(=O)c3ccc4c(-c5c(C(C)C)cc6c(nc(C)n6C)c5Cl)cccn34)cc2F)CC1 (single isomer, unassigned) [Example 71-1, (E)-N-(4-(8-(4-chloro-6-isopropyl-1,2-dimethyl-1H-benzo[d]imidazol-5-yl)indolizine-3-carbonyl)-2,6-difluorophenyl)-4-(((1r,4r)-4-methoxycyclohexyl)amino)but-2-enamide] | 7.37 | 6.89 | A (A binding rate of 80% or more is rated “A”)
CO[C@H]1CC[C@H](NC/C=C/C(=O)Nc2c(F)cc(C(=O)c3ccc4c(-c5c(C(C)C)cc6c(nc(C)n6C)c5Cl)cccn34)cc2F)CC1 (single isomer, unassigned) [Example 71-2, (E)-N-(4-(8-(4-chloro-6-isopropyl-1,2-dimethyl-1H-benzo[d]imidazol-5-yl)indolizine-3-carbonyl)-2,6-difluorophenyl)-4-(((1r,4r)-4-methoxycyclohexyl)amino)but-2-enamide] | 6.66 | 6.24 | A (A binding rate of 80% or more is rated “A”)
COc1c(-c2cccn3c(C(=O)c4cc(F)c(NC(=O)/C=C/CN[C@H]5CC[C@H](OC)CC5)c(F)c4)cnc23)c(C(F)(F)F)cc2c1nc(C)n2C (single isomer, unassigned) [Example 83-1, (E)-N-(2,6-difluoro-4-(8-(4-methoxy-1,2-dimethyl-6-(trifluoromethyl)-1H-benzo[d]imidazol-5-yl)imidazo[1,2-a]pyridine-3-carbonyl)phenyl)-4-(((1r,4r)-4-methoxycyclohexyl)amino)but-2-enamide] | 7.80 | 7.80 | A (A binding rate of 80% or more is rated “A”)
COc1c(-c2cccn3c(C(=O)c4cc(F)c(NC(=O)/C=C/CN[C@H]5CC[C@H](OC)CC5)c(F)c4)cnc23)c(C(F)(F)F)cc2c1nc(C)n2C (single isomer, unassigned) [Example 83-2, (E)-N-(2,6-difluoro-4-(8-(4-methoxy-1,2-dimethyl-6-(trifluoromethyl)-1H-benzo[d]imidazol-5-yl)imidazo[1,2-a]pyridine-3-carbonyl)phenyl)-4-(((1r,4r)-4-methoxycyclohexyl)amino)but-2-enamide] | 6.04 | 6.07 | B (a binding rate of 60% or more and less than 80% is rated “B”)
CCc1nc2c(-c3c(C(F)(F)F)cc4c(nc(C)n4C)c3OC)cccn2c1C(=O)c1cc(F)c(NC(=O)/C=C/CN[C@H]2CC[C@H](OC)CC2)c(F)c1 (single isomer, unassigned) [Example 102-1, (E)-N-(4-(2-ethyl-8-(4-methoxy-1,2-dimethyl-6-(trifluoromethyl)-1H-benzo[d]imidazol-5-yl)imidazo[1,2-a]pyridine-3-carbonyl)-2,6-difluorophenyl)-4-(((1r,4r)-4-methoxycyclohexyl)amino)but-2-enamide] | 7.24 | 7.70 | A (A binding rate of 80% or more is rated “A”)
CCc1nc2c(-c3c(C(F)(F)F)cc4c(nc(C)n4C)c3OC)cccn2c1C(=O)c1cc(F)c(NC(=O)/C=C/CN[C@H]2CC[C@H](OC)CC2)c(F)c1 (single isomer, unassigned) [Example 102-2, (E)-N-(4-(2-ethyl-8-(4-methoxy-1,2-dimethyl-6-(trifluoromethyl)-1H-benzo[d]imidazol-5-yl)imidazo[1,2-a]pyridine-3-carbonyl)-2,6-difluorophenyl)-4-(((1r,4r)-4-methoxycyclohexyl)amino)but-2-enamide] | 5.61 | 5.83 | C (a binding rate of 40% or more and less than 60% is rated “C”)

Continued, in another order:

pIC50 [1] | pIC50 (MIA PaCa-2 cells) | SMILES | binding rate [2]
7.53 | 7.64 | COc1c(-c2cccn3c(C(=O)c4cc(F)c(NC(=O)/C=C/CNC5(C)CC5)c(F)c4)cnc23)c(C(F)(F)F)cc2c1nc(C)n2C (single isomer, unassigned) [Example 105-1, (E)-N-(2,6-difluoro-4-(8-(4-methoxy-1,2-dimethyl-6-(trifluoromethyl)-1H-benzo[d]imidazol-5-yl)imidazo[1,2-a]pyridine-3-carbonyl)phenyl)-4-((1-methylcyclopropyl)amino)but-2-enamide] | A (A binding rate of 80% or more is rated “A”)
5.84 | 6.03 | COc1c(-c2cccn3c(C(=O)c4cc(F)c(NC(=O)/C=C/CNC5(C)CC5)c(F)c4)cnc23)c(C(F)(F)F)cc2c1nc(C)n2C (single isomer, unassigned) [Example 105-2, (E)-N-(2,6-difluoro-4-(8-(4-methoxy-1,2-dimethyl-6-(trifluoromethyl)-1H-benzo[d]imidazol-5-yl)imidazo[1,2-a]pyridine-3-carbonyl)phenyl)-4-((1-methylcyclopropyl)amino)but-2-enamide] | C (a binding rate of 40% or more and less than 60% is rated “C”)
7.72 | 7.67 | COc1c(-c2cccn3c(C(=O)c4cc(F)c(NC(=O)/C=C/CNC5(C)CC5)c(F)c4)c(C)nc23)c(C(F)(F)F)cc2c1nc(C)n2C (single isomer, unassigned) [Example 109-1, (E)-N-(2,6-difluoro-4(8-(4-methoxy-1,2-dimethyl-6-(trifluoromethyl)-1H-benzo[d]imidazol-5-yl)-2-methylimidazo[1,2-a]pyridine-3-carbonyl)phenyl)-4-((1-methylcyclopropyl)amino)but-2-enamide] | A (A binding rate of 80% or more is rated “A”)
5.92 | 6.11 | COc1c(-c2cccn3c(C(=O)c4cc(F)c(NC(=O)/C=C/CNC5(C)CC5)c(F)c4)c(C)nc23)c(C(F)(F)F)cc2c1nc(C)n2C (single isomer, unassigned) [Example 109-2, (E)-N-(2,6-difluoro-4(8-(4-methoxy-1,2-dimethyl-6-(trifluoromethyl)-1H-benzo[d]imidazol-5-yl)-2-methylimidazo[1,2-a]pyridine-3-carbonyl)phenyl)-4-((1-methylcyclopropyl)amino)but-2-enamide] | D (a binding rate of 20% or more and less than 40% is rated “D”)
